What all share (experiment): NCI tumour cell line growth inhibition, 48 h
The test system of assay [1] is OVCAR-8 ovarian.
In assay [2] the test system is SF-539 CNS.
Assay [3] relates to CCRF-CEM leukemia.
Assay [4] has as its system HT29 colon.
Assay [5] relates to SNB-75 CNS.
Assay [6] deals with SF-295 CNS.
Assay [7] deals with SN12C renal.
The subject of assay [8] is PC-3 prostate.
In assay [9] the test system is HS 578T breast.
Assay [10] has as its system HL-60(TB) leukemia.

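1) Cells in 96-well plates. 2) Compound, 48 h, 5 concentrations. 3) Linear interpolation between surrounding doses. 4) Unreached endpoint = highest concentration. GI50 = concentration required for 50% inhibition of growth. TGI is the concentration that stops growth completely.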

`CCN(CC)CCn1[nH]c2c3ccc(=O)cc3sc3c(NCCN)ccc1c32`: the TGI in assay [1] is 12.7 µM; in assay [2] it was 1.72 µM; in assay [3] it was 0.719 µM; in assay [4], 6.2 µM; in [5], 3.61 µM; in assay [6], 8.07 µM. Moreover, the TGI in assay [7] was 8.15 µM.
`O=C1c2ccccc2C(=O)c2c(NCC3CO3)ccc(NCC3CO3)c21` (configuration not stated): the TGI in assay [1] was 2.49 µM; in assay [2], 6.82 µM; in [4], 12.8 µM; in assay [5], above 100 µM; in assay [6], 23.7 µM; in [8], 9.61 µM. Besides, the TGI in assay [7] is 2.06 µM; in [9], 15.3 µM.
For the compound `S=C=NCCc1ccccc1`, the TGI was determined as 2.65 µM in assay [10]; 5.57 µM in assay [1]; 0.532 µM in assay [2]; 4.25 µM in assay [3]; 0.554 µM in assay [4]; 11.8 µM in [5]. For the same compound, the TGI in [6] worked out at 3.47 µM; in assay [7] it was 0.987 µM.
Consider `O=C(C/C(CCC(=O)N(Cc1ccccc1)Cc1ccccc1)=N/Nc1ccc([N+](=O)[O-])cc1[N+](=O)[O-])c1ccccc1`, for which the TGI in [10], in assay [1], in [2], in [3], in assay [4] and in assay [5] was above 100 µM each time. The compound further displayed a TGI in assay [6] above 100 µM.
Regarding `c1ccc(P(=C2c3ccccc3-c3ccccc32)(c2ccccc2)c2ccccc2)cc1`, the TGI in assay [10] was found to be 4.36 µM; in assay [1], 12.7 µM; in assay [2] it was 36.7 µM; in [3], 8.34 µM; in [4], 10.4 µM; in [5] it was 83.8 µM. The values for the TGI in [6] and in assay [7] were 16.1 µM and 10.9 µM, respectively.
Turning to `COc1ccc(Nc2nc3cc(N)cc(N)c3nc2-c2ccccc2)cc1OC`, the GI50 in assay [1] is 33.6 µM; in assay [2], 16.2 µM; in assay [4] it was 25.2 µM; in assay [6], 16.9 µM; in [8], 14 µM; in assay [7], 16.7 µM. For the same compound, the GI50 in assay [9] was 18.5 µM. The TGI in assay [1] was above 100 µM; in assay [2], 37.5 µM; in [4], 52.7 µM; in [6], 45.3 µM; in assay [8], 36 µM; in assay [7], 44.1 µM. Moreover, the TGI in [9] was 50.2 µM.
With `CC[N+](C)(CC)CC(C)(C)C(=O)/C=C/c1ccc(/C=C/C(=O)C(C)(C)C[N+](C)(CC)CC)cc1`, the TGI in assay [10], in [1], in assay [2], in assay [3], in assay [4] and in assay [5] was above 100 µM each time. In addition, the TGI in assay [6] and in assay [7] was above 100 µM each time.
For the compound `C#CCN(C(=O)C(F)(F)F)c1ccc(C(=O)c2ccc(N(CC#C)C(=O)C(F)(F)F)cc2)cc1`, the TGI in [10] is 40.3 µM; in assay [1] it was above 100 µM; in assay [2], above 100 µM; in [3] it was above 100 µM; in [4] it was 45.4 µM; in [5] it was above 100 µM. The TGI in assay [6] and in assay [7] was above 100 µM in each case.
On to `O=c1cc(-c2ccccc2)oc2cc(OC/C(=N/O)c3ccc(F)cc3)ccc12`, for which the GI50 in assay [10] is 19 µM; in [1], 32.2 µM; in [2], 11.5 µM; in assay [3], 23.7 µM; in [4] it was 29.6 µM; in assay [5], above 50 µM. Also, the GI50 was 8.93 µM in assay [6], 11.9 µM in assay [8] and 15.5 µM in [7]. Moreover, the TGI in assay [10] was above 50 µM; in [1], above 50 µM; in assay [2], 26 µM; in assay [3], above 50 µM; in [4] it was above 50 µM; in [5], above 50 µM. The results for the TGI in assay [6], in assay [8] and in assay [7] were 24.6 µM, 40.1 µM and above 50 µM, respectively.
With `Cc1nc2sccn2c1C(=O)NC(=O)Nc1ccc(Cl)cc1`, the TGI in assay [10] was above 100 µM; in [1] it was above 100 µM; in assay [2], above 100 µM; in assay [3], above 100 µM; in assay [4] it was above 100 µM; in assay [5], 50.8 µM. Besides, the TGI in assay [6] and in assay [7] was above 100 µM each time.
Consider `CCOc1ccc(O)cc1[P+](c1ccccc1)(c1ccccc1)c1ccccc1`, for which the TGI in [1] came out at 15.7 µM; in assay [2] it was 17.8 µM; in assay [3], 11.2 µM; in [4], 17.6 µM; in assay [5] it was 25.6 µM; in assay [6], 19.9 µM. In assay [7], this compound yielded a TGI of 13.7 µM.
For `COC1C2c3cc4c(cc3CC(C#N)(c3ccccc32)N1C(=O)c1ccccc1)OCO4` (configuration not stated), the TGI in [10], in [1], in assay [2], in assay [3], in [4] and in [5] was above 100 µM in each case. Besides, the TGI in assay [6] and in [7] was above 100 µM each time.
`Cc1cc(=O)[nH]c(CNC(=O)c2cccc(C(=O)NCc3cc(=O)[nH]c(C)n3)c2)n1`: the TGI in assay [10], in [1], in assay [2], in [3], in assay [4] and in assay [5] was above 100 µM each time. Also, the TGI in [6] and in [7] was above 100 µM throughout.
With `COC(=O)/C=c1\s/c(=C\C(=O)OC)c2ccccc12`, the TGI in assay [10], in [1], in assay [2], in assay [3], in assay [4] and in [5] was above 100 µM in each case. For the same compound, the TGI in assay [6] and in assay [7] was above 100 µM throughout.
In the case of `O=C(CCc1nnc2s/c(=C\c3ccccc3Cl)c(=O)n12)Nc1cc(Cl)ccc1Cl`, the TGI in assay [10], in assay [1], in [2], in assay [3], in assay [4] and in [6] was above 100 µM each time. Besides, the TGI in assay [7] is above 100 µM.

Source of the values: PubChem BioAssay (NCI).
